# Laboratory results as given in paper PMC11078990, “Identification and characterization of small molecule inhibitors of the LINE-1 retrotransposon endonuclease” (Nature Communications, 2024).
# Where “and” joins values, the source holds several entries; their conditions need not be identical. Equal values may be shown once. Read-outs that look alike come from different tables or passages of the source.
# Legend:
# [1] = target: L1 EN (LINE-1 retrotransposon endonuclease domain) (Homo sapiens, UniProt O00370, N5T); assay: Fluorescent oligonucleotide EN nicking activity assay; type: biochemical
# L1 EN (LINE-1 retrotransposon endonuclease domain), sequence (O00370 1-239 N5T): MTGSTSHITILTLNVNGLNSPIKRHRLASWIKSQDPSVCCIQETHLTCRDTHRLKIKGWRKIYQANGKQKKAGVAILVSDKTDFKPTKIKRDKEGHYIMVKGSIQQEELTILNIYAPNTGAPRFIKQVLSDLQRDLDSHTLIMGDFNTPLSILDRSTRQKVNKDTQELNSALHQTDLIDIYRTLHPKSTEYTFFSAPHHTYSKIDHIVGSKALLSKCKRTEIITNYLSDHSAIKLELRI
# APE1 = target: T1, APE1 (Homo sapiens, UniProt P27695); assay: APE1 fluorescent oligonucleotide activity assay (abasic site substrate); type: biochemical; settings: for activity at 25 µM: read-out: APE1 activity (%)
# T1 construct: purchased New England Biolabs (NEB) M0282S
# [2] = tested on: substrate oligonucleotide used in the EN activity assay; type: binding; design: key to Binding Detected? (Y/N): Binding Detected? (Y/N); Binding Detected? (Y/N)
# L1 retrotransposition = assay: HeLa dual-luciferase L1 retrotransposition assay; type: cell-based, human; settings: for L1 retrotransposition, average: average of 4 replicates
# HeLa Tet-On cells = settings: human
# [3] = read-out: EN activity, percent of no inhibitor control
structure (smiles),measurement,setting,value
Cc1cc(=O)oc2c3c(ccc12)O/C(=N/Nc1ccc([N+](=O)[O-])cc1[N+](=O)[O-])C3=O [AD5],"EN activity, percent of no inhibitor control",[1]; 0.5 µM,83.4432% and 74.5276%
same,"EN activity, percent of no inhibitor control",[1]; 2 µM,70.978% and 73.9003%
same,"EN activity, percent of no inhibitor control",[1]; 5 µM,74.0185% and 75.6649%
same,"EN activity, percent of no inhibitor control",[1]; 10 µM,77.2953% and 59.874% and 46.95%
same,"EN activity, percent of no inhibitor control",[1]; 25 µM,51.0006% and 46.7642%
same,"EN activity, percent of no inhibitor control",[1]; 100 µM,9.806% and 12.2088%
same,"EN activity, percent of no inhibitor control",[1]; 250 µM,10.849% and 15.1279%
same,"EN activity, percent of no inhibitor control",[1]; 500 µM,8.917% and 12.6828%
same,remaining activity at 0.5 µM,[1]; [3],82.5%
same,remaining activity at 2 µM,[1]; [3],78.9%
same,remaining activity at 5 µM,[1]; [3],74.7%
same,remaining activity at 25 µM,[1]; [3],46.1%
same,remaining activity at 100 µM,[1]; [3],7.29%
same,remaining activity at 250 µM,[1]; [3],12%
same,remaining activity at 500 µM,[1]; [3],9.9%
same,"APE1 percent activity, Replicate 1",APE1,111.351%
same,"APE1 percent activity, Replicate 2",APE1,107.526%
same,"APE1 percent activity, Replicate 3",APE1,109.094%
same,"APE1 percent activity, average",APE1,109.324%
same,activity at 25 µM,APE1,109 ± 1.9%
same,Binding Detected? (Y/N),[2],N
same,Effect on L1 retrotransposition,L1 retrotransposition,did not significantly impact retrotransposition
same,"Luciferase (retrotransposition), average",L1 retrotransposition,7.139
same,"Luciferase (retrotransposition), replicates",L1 retrotransposition,5.447 and 9.3633 and 6.616 and 7.129
same,"PrestoBlue (viability), average",HeLa Tet-On cells,15.98
C[C@H]1C[C@H](C)CN(CCCNc2ccc(C(=O)Nc3ccc(C(F)(F)F)cc3)cc2[N+](=O)[O-])C1 [AD9],"EN activity, percent of no inhibitor control","[1]; [Inhibitor] 2 μM, technical replicates 1-3, Fig. 2b source data, 2 µM",91.056% and 80.4005%
same,remaining activity at 2 µM,"[1]; [Inhibitor] 2 μM, technical replicates 1-3, Fig. 2b source data, read-out: EN activity, percent of no inhibitor control",100%
same,"EN activity, percent of no inhibitor control","[1]; [Inhibitor] 10 μM, technical replicates 1-3, Fig. 2b source data, 10 µM",101.14% (2×) and 73.8761%
same,"EN activity, percent of no inhibitor control","[1]; [Inhibitor] 25 μM, technical replicates 1-3, Fig. 2b source data, 25 µM",96.0191%
same,remaining activity at 25 µM,"[1]; [Inhibitor] 25 μM, technical replicates 1-3, Fig. 2b source data, read-out: EN activity, percent of no inhibitor control",109%
same,"EN activity, percent of no inhibitor control","[1]; [Inhibitor] 50 μM, technical replicates 1-3, Fig. 2b source data, 50 µM",139.387% and 77.4751% and 117.995%
same,"EN activity, percent of no inhibitor control","[1]; [Inhibitor] 100 μM, technical replicates 1-3, Fig. 2b source data, 100 µM",89.4903%
same,remaining activity at 100 µM,"[1]; [Inhibitor] 100 μM, technical replicates 1-3, Fig. 2b source data, read-out: EN activity, percent of no inhibitor control",85.7%
same,"EN activity, percent of no inhibitor control","[1]; [Inhibitor] 250 μM, technical replicates 1-3, Fig. 2b source data, 250 µM",70.6219%
same,remaining activity at 250 µM,"[1]; [Inhibitor] 250 μM, technical replicates 1-3, Fig. 2b source data, read-out: EN activity, percent of no inhibitor control",83.4%
same,"EN activity, percent of no inhibitor control","[1]; [Inhibitor] 500 μM, technical replicates 1-3, Fig. 2b source data, 500 µM",47.0918%
same,remaining activity at 500 µM,"[1]; [Inhibitor] 500 μM, technical replicates 1-3, Fig. 2b source data, read-out: EN activity, percent of no inhibitor control",45.2%
same,"EN activity, percent of no inhibitor control","[1]; [Inhibitor] 1000 μM, technical replicates 1-3, Fig. 2b source data, 1000 µM",38.5425%
same,remaining activity at 1000 µM,"[1]; [Inhibitor] 1000 μM, technical replicates 1-3, Fig. 2b source data, read-out: EN activity, percent of no inhibitor control",31.3%
same,"EN activity, percent of no inhibitor control","[1]; [Inhibitor] 2000 μM, technical replicates 1-3, Fig. 2b source data, 2000 µM",14.4137%
same,remaining activity at 2000 µM,"[1]; [Inhibitor] 2000 μM, technical replicates 1-3, Fig. 2b source data, read-out: EN activity, percent of no inhibitor control",28.7%
same,"Percent APE1 activity, average","APE1; 250 µM, Supplementary Fig. 6b, n=3",100.1%
same,"Percent APE1 activity, replicates","APE1; 250 µM, Supplementary Fig. 6b, replicates 1-3",118.893% and 92.7882% and 88.5535%
same,"APE1 percent activity, Replicate 1","APE1; compound at 25 μM, Replicate 1",119.501%
same,"APE1 percent activity, Replicate 2","APE1; compound at 25 μM, Replicate 2",114.522%
same,"APE1 percent activity, Replicate 3","APE1; compound at 25 μM, Replicate 3",113.798%
same,"APE1 percent activity, average","APE1; compound at 25 μM, average of 3 replicates",115.94%
same,activity at 25 µM,"APE1; inhibitors at 25 μM, relative to 0 μM inhibitor control, mean ± s.d., 3 independent experiments",116 ± 3.1%
same,Binding Detected? (Y/N),[2],N
same,"L1 retrotransposition, average","L1 retrotransposition; 0.2 μM inhibitor, Figure 4b concentration-dependent inhibition",1.898
same,"L1 retrotransposition, average","L1 retrotransposition; 0.5 μM inhibitor, Figure 4b",2.458
same,"L1 retrotransposition, average","L1 retrotransposition; 1 μM inhibitor, Figure 4b",2.133
same,"L1 retrotransposition, average","L1 retrotransposition; 5 μM inhibitor, Figure 4b",1.566
same,"L1 retrotransposition, average","L1 retrotransposition; 10 μM inhibitor, Figure 4b",0.7154
same,"L1 retrotransposition, average","L1 retrotransposition; 20 μM inhibitor, Figure 4b",1.222
same,"L1 retrotransposition, average","L1 retrotransposition; 35 μM inhibitor, Figure 4b",0.4788
same,"Luciferase (retrotransposition), average","L1 retrotransposition; Figure 4a Graph 2, 50 μM, 0 μM average 9.679",2.116
same,"Luciferase (retrotransposition), replicates","L1 retrotransposition; Figure 4a Graph 2, 50 μM, Replicates 1-4, 0 μM average 9.679",3.949 and 1.344 and 2.584 and 0.5874
same,Effect on L1 retrotransposition,L1 retrotransposition; HeLa cells,some activity in the retrotransposition assay
same,"PrestoBlue (viability), average","HeLa Tet-On cells; 48 h, 50 μM",17.51
O=C1c2ccc(Oc3ccc4c(c3)C(=O)N(Nc3ccc([N+](=O)[O-])cc3[N+](=O)[O-])C4=O)cc2C(=O)N1Nc1ccc([N+](=O)[O-])cc1[N+](=O)[O-] [AD13],"EN activity, percent of no inhibitor control",[1]; 0.5 µM,119.788% and 111.52%
same,"EN activity, percent of no inhibitor control",[1]; 10 µM,92.6481% and 80.1764%
same,"EN activity, percent of no inhibitor control",[1]; 25 µM,33.9668% and 41.2844%
same,"EN activity, percent of no inhibitor control",[1]; 50 µM,7.541% and 8.862% and 3.766%
same,"EN activity, percent of no inhibitor control",[1]; 100 µM,1.558% and 1.832%
same,"EN activity, percent of no inhibitor control",[1]; 250 µM,1.124% and 2.509% and 2.58%
same,"EN activity, percent of no inhibitor control",[1]; 500 µM,0.9149% and 2.171% and 1.168%
same,"EN activity, percent of no inhibitor control",[1]; 1000 µM,5.545% and 2.613% and 9.084%
same,remaining activity at 0.5 µM,[1]; [3],114%
same,remaining activity at 10 µM,[1]; [3],97.9%
same,remaining activity at 25 µM,[1]; [3],25.1%
same,remaining activity at 100 µM,[1]; [3],0.968%
same,remaining activity at […],[1]; [3],89.7%
same,"APE1 percent activity, Replicate 1",APE1,97.407%
same,"APE1 percent activity, Replicate 2",APE1,88.0071%
same,"APE1 percent activity, Replicate 3",APE1,67.6438%
same,"APE1 percent activity, average",APE1,84.3526%
same,activity at 25 µM,APE1,84.4 ± 15.2%
same,Binding Detected? (Y/N),[2],N
same,"Luciferase (retrotransposition), average",L1 retrotransposition,4.925
same,"Luciferase (retrotransposition), replicates",L1 retrotransposition,6.1144 and 4.934 and 4.878 and 3.774
same,"PrestoBlue (viability), average",HeLa Tet-On cells,12.09
